We go through 30 compounds from PMC7978378, “Discovery of novel dual adenosine A1/A2A receptor antagonists using deep learning, pharmacophore modeling and molecular docking” (PLoS Computational Biology, 2021).

Some results are limits rather than exact numbers.

For data set [1], the system named is animal models of PD. Set-up: method as in PMID 20973483. The note with it: oral administration; cited from earlier work.
Details of data set [2]: method as in PMID 20973483. The conditions noted are these: further studies; cited from earlier work.
For data set [3], the target named is A1 receptor. The note with it: cited from earlier work.
In data set [4] the target is A2A receptor. The note with it: cited from earlier work.
Data set [5] concerns the target A2AAR. Set-up: method as in ChEMBL25 [53]. The conditions noted are these: S1 Table training set; ref ChEMBL25 [53]; read-out: Ki (nM) A2A; cited from earlier work.
The target of data set [6] is A1AR. Set-up: method as in ChEMBL25 [53]. The conditions noted are these: S1 Table training set; ref ChEMBL25 [53]; read-out: Ki (nM) A1; cited from earlier work.
Data set [7] addresses T1, A1AR (Homo sapiens, UniProt P30542).
T1 sequence (P30542 1-326): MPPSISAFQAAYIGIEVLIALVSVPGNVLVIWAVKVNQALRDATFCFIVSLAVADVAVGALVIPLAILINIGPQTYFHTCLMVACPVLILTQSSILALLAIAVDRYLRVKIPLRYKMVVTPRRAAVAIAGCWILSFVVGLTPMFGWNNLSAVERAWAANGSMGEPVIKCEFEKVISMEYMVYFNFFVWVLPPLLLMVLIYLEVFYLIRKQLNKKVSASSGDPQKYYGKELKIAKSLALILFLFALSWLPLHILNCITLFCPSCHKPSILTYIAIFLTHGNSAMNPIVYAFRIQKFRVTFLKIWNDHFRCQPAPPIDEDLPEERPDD
Description: cAMP functional assay, CHO-A1 cells. Set-up: host or cells: CHO-A1 cells. The class given is cell-based. The conditions noted are these: antagonism of NECA effect on cAMP, 5.08 × 10^−3 to 100 μM, read-out: cAMP assays (pIC50) A1 (converted).

The target in data set [8] is T1, A1AR. In words: biochemical.
In data set [9] the target is T2, A2AAR (Homo sapiens, UniProt P29274). Description: Radioligand binding assay ([3H]ZM241385). The conditions noted are these: [3H]ZM241385 0.5 nM, 90 min at 27°C, Cheng-Prusoff; read-out: Binding affinities (pKi) A2A (converted).
Data set [10] concerns the target T2, A2AAR. In words: cAMP functional assay, HEK293-A2A cells. The class given is cell-based. Set-up: host or cells: HEK293-A2A cells. The conditions noted are these: antagonism of NECA effect on cAMP, 5.08 × 10^−3 to 100 μM, read-out: cAMP assays (pIC50) A2A (converted).
The target in data set [11] is A1/A2A ARs. In words: Radioligand binding assays, summarised over both receptors. Set-up: species or system human. The conditions noted are these: range over A1AR and A2AAR radioligand binding assays.
The subject of data set [12] is A1/A2A ARs. In words: cAMP functional assay, summarised over both receptors. The note with it: range over A1AR and A2AAR cAMP assays. (In general: Changes in cAMP serve as a functional read-out for many G protein-coupled receptors.)
For data set [13], the system named is rodents. The note with it: forced swim test and tail suspension test in rodents; cited from earlier work.

T2 sequence (P29274 whole entry): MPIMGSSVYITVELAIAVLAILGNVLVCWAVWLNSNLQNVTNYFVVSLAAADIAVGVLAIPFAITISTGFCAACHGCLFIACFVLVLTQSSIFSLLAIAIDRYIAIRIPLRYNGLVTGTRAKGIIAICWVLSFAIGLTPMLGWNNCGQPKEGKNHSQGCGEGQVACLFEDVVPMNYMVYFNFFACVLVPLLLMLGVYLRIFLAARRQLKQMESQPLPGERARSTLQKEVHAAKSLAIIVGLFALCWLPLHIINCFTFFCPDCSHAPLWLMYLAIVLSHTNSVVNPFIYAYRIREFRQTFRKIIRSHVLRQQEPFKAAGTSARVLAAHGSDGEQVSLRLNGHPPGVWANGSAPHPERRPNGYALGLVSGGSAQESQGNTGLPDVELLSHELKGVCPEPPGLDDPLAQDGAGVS

As for `Nc1nc(-c2ccccc2)c2c(n1)-c1cc(CN3CCCC3)ccc1C2=O` [2-amino-4-phenyl-8-(pyrrolidin-1-ylmethyl)-5H-indeno[1,2-d]pyrimidin-5-one], the “activity in animal models of PD” value in data set [1] is listed as “excellent activity”. In [2], the genotoxicity result was “genotoxic”.

As to `Cc1ccc(-c2cc(-c3cccc(C(=O)N4CCCCC4)c3)nc(N)n2)o1` [4-(5-methylfuran-2-yl)-6-[3-(piperidine-1-carbonyl)phenyl]pyrimidin-2-amine], the Ki is 9.54 nM in data set [3] and 6.34 nM in [4].

For `N#Cc1c(N)nc(SCc2ncc[nH]2)c(C#N)c1-c1ccc(O)cc1` [CHEMBL122622], the Ki in [5] is 28 nM; in data set [6], 2.6 nM.

As for `COc1ccc(NC(=O)Nc2nc3ccc(Cl)cc3c3nc(-c4ccco4)nn23)cc1` [CHEMBL144979], the Ki in data set [5] was 9.4 nM; in data set [6], 7.6 nM.

For `CCCCCc1nc(N)c2nc(-n3nccn3)n(C)c2n1` [CHEMBL196258], the Ki in data set [6] is 26.2 nM.

On to `Nc1nc(C#C[C@@H](O)c2ccccc2)nc2c1ncn2[C@@H]1O[C@H](CO)[C@@H](O)[C@H]1O` [CHEMBL262363], for which the Ki in [5] is 1.8 nM; in [6] it was 0.67 nM.

Consider `OC[C@H]1O[C@@H](n2cnc3c(NC4CCCC4)nc(Cl)nc32)[C@H](O)[C@@H]1O` [CHEMBL284969], for which, in [5], the Ki was 17 nM.

Regarding `CC(=O)Nc1cc(-n2cccn2)nc(-c2ccco2)n1` [CHEMBL401321], the Ki in data set [5] is 0.6 nM; in data set [6], 9.45 nM.

Consider `Cc1ccc(-c2nc(N)nc3c2nnn3Cc2ccccc2F)o1` [CHEMBL461857], for which the Ki in [5] was 2.1 nM; in data set [6], 19 nM.

As for `CC(=O)Nc1cc(-c2cccc(N3CCCC3)n2)nc(-n2nc(C)cc2C)n1` [CHEMBL485765], the Ki was 0.26 nM in data set [5] and 7.2 nM in data set [6].

Take `O=C(NC1CC1)[C@H]1S[C@@H](n2cnc3c(NCc4cccc(I)c4)ncnc32)[C@H](O)[C@@H]1O` [CHEMBL596014]: the Ki in data set [5] was 15.2 nM.

Regarding `Nc1nc(-c2ccccc2)c2c(n1)-c1cc(N3CCOCC3)ccc1C2=O` [CHEMBL1095822], the Ki in [5] was 2.9 nM; in data set [6], 32.4 nM.

On to `CCn1c(/N=C/c2ccc(F)cc2)c(C#N)sc1=S` [CHEMBL2419148], for which, in data set [5], the Ki was 11 nM.

Regarding `CN(C)CCOc1ccc(-c2nc3c([nH]2)c(=O)n(C)c(=O)n3C)cc1` [CHEMBL3121720], the Ki in data set [5] is 0.4 nM; in [6] it was 1.82 nM.

In the case of `CCCCNC(=O)CCn1nc(-c2ccccc2)c2ccccc2c1=O` [Compound C1], the IC50 in data set [7] was above 100000 nM.

Take `O=C(COc1ccccc1)Nc1c(C(=O)Nc2cccc(F)c2)oc2ccccc12` [Compound C2]: in [7], the IC50 was above 100000 nM.

As for `O=C(CCCn1c2ccccc2c2cn[nH]c(=O)c21)NCc1cccs1` [Compound C3], the IC50 in data set [7] is above 100000 nM.

`O=C(c1ccco1)n1nc(-c2ccco2)nc1NCc1ccccc1` [Compound C4]: the IC50 in [7] was 3090 nM; in [10], above 100000 nM. In addition, the Ki is 2090 nM in data set [8] and 19500 nM in data set [9].

Take `Cc1ccccc1-c1nc(N)n(C(=O)Cc2ccccc2)n1` [Compound C7]: the IC50 is 1910 nM in [7] and above 100000 nM in data set [10]. Also, the Ki was 1050 nM in data set [8] and 5750 nM in [9].

For the compound `Nc1nc(-c2ccccc2Cl)nn1C(=O)c1cccc(Cl)c1` [Compound C9], the IC50 is 191 nM in [7] and 490 nM in [10]. For the same compound, in data set [11], the “pKi for A1/A2A ARs” value is recorded as 7.16–7.49. The figures for the Ki in data set [8] and in data set [9] were 32.4 nM and 69.2 nM, respectively. Besides, in [12], the “pIC50 towards A1/A2A ARs” value is 6.31–6.78.

As for `CCCNc1cc(C)nc2c(C)c(-c3ccc(C)cc3)nn12` [Compound C10], the IC50 in data set [7] is 347 nM; in data set [10], 10000 nM. Also, the results for the Ki in [8] and in data set [9] were 170 nM and 8320 nM, respectively.

`Cn1c(=O)c2c(-c3cccc(Cl)c3)c(Nc3ccccc3)oc2n(C)c1=O` [Compound C11]: the IC50 in data set [7] is above 100000 nM.

Regarding `O=C(Cc1csc(NC(=O)c2ccc3c(c2)OCO3)n1)NCCCc1ccccc1` [Compound C13], in data set [7], the IC50 was above 100000 nM.

For the compound `Cc1cccc(NC(=O)Cc2csc(NC(=O)c3ccc4c(c3)OCO4)n2)c1` [Compound C14], the IC50 in data set [7] was above 100000 nM.

As to `CC(=O)c1cccc(NC(=O)Nc2cc3c(cc2Oc2ccccc2)n(C)c(=O)n3C)c1` [Compound C15], the IC50 in data set [7] is 4470 nM; in [10] it was 7940 nM. For the same compound, the Ki in data set [8] is 2880 nM; in data set [9], above 100000 nM. Also, the “pIC50 towards A1/A2A ARs” value in [12] was 5.10–5.35.

Take `CCCn1ccc2c(OCC(=O)Nc3ccc(OCC)cc3)cccc2c1=O` [Compound C16]: in data set [7], the IC50 was above 100000 nM.

On to `CCn1cnc2c(-c3ccccc3)cn(CC(=O)Nc3cccc(F)c3)c2c1=O` [Compound C17], for which the IC50 is 631 nM in [7] and 63100 nM in data set [10]. The Ki in [8] was 525 nM; in data set [9], above 100000 nM.

As for `O=C(Cn1c(=O)n(-c2ccccc2)c2ncccc21)NCc1cccc(F)c1` [Compound C18], in data set [7], the IC50 was above 100000 nM.

`Cc1ccc(-c2c(C(=O)NCc3ccncc3)nc3ccccn23)cc1` [Compound C19]: the IC50 in data set [7] is 52500 nM; in data set [10] it was above 100000 nM. Also, the Ki is 10700 nM in data set [8] and 11700 nM in data set [9].

Take `CCn1c(=O)c2c(nc(/C=C/c3ccc(OC)c(OC)c3)n2C)n(CC)c1=O` [KW-6002]: the antidepressant activity result in data set [13] was “antidepressant activity”.
